Earlier results, collected in patent US20250381145A1, “COMBINATION OF SGLT2 INHIBITORS AND MINERALCORTICOID RECEPTOR MODULATORS FOR USE IN TREATMENT OF CARDIORENAL DISEASES” (ASTRAZENECA AB, priority 2022, published 2025).

| solubility (BCS characterisation) | SMILES |
| --- | --- |
| high | CCOc1ccc(Cc2cc([C@@H]3O[C@H](CO)[C@@H](O)[C@H](O)[C@H]3O)ccc2Cl)cc1 [dapagliflozin] |
| low | CNC(=O)C[C@H]1COc2cc(F)ccc2N1C(=O)c1ccc2c(c1)NC(=O)CO2 [AZD9977, balcinrenone] |
